{
  "source": "paper PMC11933534",
  "about": "“Favipiravir induces HuNoV viral mutagenesis and infectivity loss with clinical improvement in immunocompromised patients” (Clinical Immunology (Orlando, Fla.), 2024)",
  "key": {"[1]": {"tested_on": "HuNoV", "assay": "Infectivity of P1 stool-sample HuNoV in zebrafish larvae (fold increase, ID50)", "assay_type": "in vivo", "procedure": "Human stool samples, positive for HuNoV, were obtained from the Great Ormond Street Hospital for Children (United Kingdom) and the University Hospital of Leuven (Belgium). An aliquot of 100 mg of each stool sample was re-suspended in 1 mL of sterile PBS, thoroughly vortexed, and centrifuged (5 min, 1000 g), supernatant was harvested and stored at −80 °C. This virus suspension was used for RNA extractions, quantification by RT-qPCR and injections in the zebrafish larvae. HuNoV RNA was extracted from 100 μL of PBS suspension using the Direct-zol RNA kit (Zymo Research, Irvine, CA, USA), according to the manufacturer's protocol. The original concentrations of the stool samples were as followed: SS A: 5.52*10^9 copies/g stool, SS B: 1.34*10^11 copies/g stool, SS C: 2.07*10^11 copies/g stool, SS D: 3.07*10^10 copies/g stool, SS E: 1.23*10^12 copies/g stool, SS F: 3.12*10^11 copies/g stool and GII.4 Sydney[P16] (in house collection KU Leuven): 1.46*10^10 copies/g stool.\n(§1) Zebrafish larvae were anesthetized and positioned as described previously, in short: zebrafish larvae of 3 days post fertilization were anesthetized and transferred to an agarose mold to position them on their dorsal side with the yolk facing upward. In every experiment, the injection needle was calibrated to ensure the precision of the injection volume. Microinjection was performed using an M3301R Manual Micromanipulator (WPI, Friedberg, Germany) and a FemtoJet 4i pressure microinjector (Eppendorf, Hamburg, Germany). Compound-treated zebrafish larvae received a 1 nL (1.5 nL in case of the combination treatment) injection of compound in the pericardial cavity, while negative control zebrafish were injected with an equal volume of DMSO. Subsequently, the zebrafish larvae received an injection of 3 nL virus in the yolk. After both injections, zebrafish larvae were transferred to 6-well plates with Danieau's solution and further maintained in an incubator with a 14/10 h light/dark cycle at 32 °C.\n(§2) Zebrafish larvae were homogenized (Precellys 24, Bertin Technologies, Montigny-le-Bretonneux, France), the homogenates were cleared by centrifugation (5 min, 9000 g), and RNA was extracted using the Direct-zol RNA kit (Zymo Research, Irvine, CA, USA), according to the manufacturer's protocol. RNA levels were quantified with a one-step RT-qPCR (iTaq Universal Probes One-Step Kit, Bio-Rad, Hercules, CA, USA) as previously described.\nTo start, all stool samples were brought to the same theoretical inoculum (± 1000 viral RNA copies/3 nL injection volume) by dilution with PBS. To compare the viral infectivity between different stool samples, multiple methods were used; A) calculating the fold increase by taking the input based on the viral load of P1's stool samples and the amount of viral RNA copies/zebrafish at the peak of replication into account which are both quantified by RT-qPCR and B) determining the 50% infectious dose for each stool sample based on a well-established method adapted to the zebrafish replication model by diluting the collected stool samples to evaluate at which dilution the infectivity is lost."}, "[2]": {"tested_on": "zebrafish larvae", "assay": "Toxicity analysis in zebrafish larvae", "assay_type": "in vivo", "conditions": "25 ng favipiravir or 4 ng tizoxanide, drug administered alone", "procedure": "(§3) First, compounds were dissolved in 100% DMSO (spectroscopy grade). To determine the correct dose for pericardial injections in zebrafish larvae of all compounds (i.e. favipiravir, tizoxanide and their 1:1 combination), a weight-dependent conversion was applied. For this purpose, the optimized and increased clinical dose of 400 mg favipiravir TDS and 200 mg tizoxanide BD was used. To ensure the weight-converted dose was not toxic for zebrafish larvae of 3 days post fertilization, a toxicity analysis was performed. […] The following parameters were investigated: touch response, morphology, posture, oedema, signs of necrosis, swim bladder and heartbeat."}, "[3]": {"tested_on": "HuNoV GII.4 Sydney[P16]", "assay": "Antiviral treatment of HuNoV-infected zebrafish larvae (viral RNA by RT-qPCR)", "assay_type": "in vivo", "conditions": "for Reduction in viral load with post-treatment sample: favipiravir 25 ng, inoculum P1 SS F carrying RdRp A44S change", "procedure": "as §3, §1, §2"}, "[4]": {"tested_on": "HuNoV", "assay": "HuNoV whole-genome sequencing of longitudinal patient stool samples", "parameters": "species or system human", "description": "Stool samples were collected from the patients. Full-length HuNoV genome sequences were obtained from samples using SureSelectXT target enrichment and Illumina sequencing. For each patient, a unique patient reference was generated by mapping the remaining reads of the first sample to the genotype reference from GenBank using bwa-mem. Reads from the subsequent samples of the same patient were mapped to this patient reference. Consensus sequences were aligned using MAFFT [58]. Only genomes with >80% genome coverage and a mean read depth of 100 or above were included in downstream analysis. Minority allele variants with a frequency of above 2% and a minimum of 2 supporting reads were identified at sites with a read depth of ≥5 using VarScan. For plotting polymorphism frequency, we have determined Watterson's theta which normalises for reading depth. Maximum likelihood phylogenies were constructed using RAxML [13], with the GTR model and 1000 bootstrap replicates. General data processing was carried out in R 3.6.1 using Rstudio 1.2. with the tidyverse family of packages (v1.2.1). Figures were made using the ggplot2 package."}, "[5]": {"tested_on": "HuNoV", "assay": "Stool HuNoV viral load (RT-qPCR Ct) in treated patients", "assay_type": "in vivo, human"}, "[6]": {"assay": "Adverse events during off-label treatment of patients", "assay_type": "in vivo, human"}},
  "data": [
    {"smiles": "NC(=O)c1nc(F)c[nH]c1=O", "note": "[favipiravir]", "values": [
      {"measurement": "Fold increase in viral RNA, 0 to 2 dpi", "setting": "[1]; P1 SS B, 2 days into favipiravir treatment (after 10 days ribavirin), ~1000 genome copies, pre-treatment SS A 321 ± 177", "result": "143 ± 76", "unit": "fold"},
      {"measurement": "50% infectious dose (ID50)", "setting": "[1]; P1 SS B, 2 days into treatment, pre-treatment SS A 289", "result": "697 viral RNA copies/zebrafish"},
      {"measurement": "Fold increase in viral RNA, 0 to 2 dpi", "setting": "[1]; P1 SS C, 125 days into favipiravir treatment, ~1000 genome copies, pre-treatment SS A 321 ± 177", "result": "53 ± 31", "unit": "fold"},
      {"measurement": "50% infectious dose (ID50)", "setting": "[1]; P1 SS C, 125 days into treatment, pre-treatment SS A 289", "result": "461 viral RNA copies/zebrafish"},
      {"measurement": "50% infectious dose (ID50)", "setting": "[1]; P1 SS D, after a 2-month treatment gap", "result": "338 viral RNA copies/zebrafish"},
      {"measurement": "Fold increase in viral RNA, 0 to 2 dpi", "setting": "[1]; P1 SS D, after a treatment gap of 2 months, ~1000 genome copies", "result": "177 ± 55", "unit": "fold"},
      {"measurement": "Fold increase in viral RNA, 0 to 2 dpi", "setting": "[1]; P1 SS E, 6 months after re-introduction at higher favipiravir dose", "result": "75 ± 21", "unit": "fold"},
      {"measurement": "50% infectious dose (ID50)", "setting": "[1]; P1 SS E, after treatment reintroduction (higher dose)", "result": "880 viral RNA copies/zebrafish"},
      {"measurement": "Fold increase in viral RNA, 0 to 2 dpi", "setting": "[1]; P1 SS F, 7 months after re-introduction at higher favipiravir dose", "result": "47 ± 16", "unit": "fold"},
      {"measurement": "50% infectious dose (ID50)", "setting": "[1]; P1 SS F, after treatment reintroduction (higher dose)", "result": "1110 viral RNA copies/zebrafish"},
      {"measurement": "Increase in the 50% infectious dose in HuNoV shed during treatment", "setting": "[1]; P1 stool samples over one year of treatment", "result": "~1", "unit": "log10"},
      {"measurement": "Toxicity in the zebrafish larval model", "setting": "[2]", "result": "did not show toxicity"},
      {"measurement": "Reduction in viral RNA copies/zebrafish", "setting": "[3]; favipiravir 25 ng single pericardial injection, inoculum P1 pre-treatment SS A, day 3 pi (peak), p = 0.0263", "result": 1.6, "unit": "log10"},
      {"measurement": "Reduction in viral load with post-treatment sample", "setting": "[3]", "result": "no reduction in viral load"},
      {"measurement": "Reduction in viral load with post-treatment sample", "setting": "[3]; listed as Favipiravir", "result": "cannot reduce"},
      {"measurement": "Reduction of HuNoV replication", "setting": "[3]; monotherapy favipiravir 25 ng or tizoxanide 4 ng, in-house GII.4 Sydney[P16] stool sample, peak 2 dpi, p = 0.0006 and 0.001", "result": "> 1", "unit": "log10"},
      {"measurement": "Favipiravir-associated viral sequence changes", "setting": "[4]; P1, P2 and P4, coinciding with periods of favipiravir treatment, reducing after cessation", "result": "accumulation of A to G and T to C sequence changes"},
      {"measurement": "Favipiravir-associated viral sequence changes", "setting": "[4]; P3, six samples", "result": "without evidence of accumulation of A to G and T to C favipiravir-associated sequence changes"},
      {"measurement": "Stool HuNoV viral load", "setting": "[5]; P3, favipiravir 12-hourly 1200 mg, before treatment max Ct 21.2", "result": 30.9, "unit": "Ct"},
      {"measurement": "Stool HuNoV viral load", "setting": "[5]; P4, favipiravir 400 mg 8-hourly + nitazoxanide 200 mg 12-hourly, max Ct, before treatment max Ct 17.9", "result": 27.8, "unit": "Ct"},
      {"measurement": "Adverse event", "setting": "[6]; P1, favipiravir 200 mg 8-hourly + nitazoxanide 200 mg 12-hourly, suspected to be drug-induced, several medications discontinued", "result": "conjugated hyperbilirubinaemia"},
      {"measurement": "Recurrence of conjugated hyperbilirubinaemia", "setting": "[6]; P1, restarted favipiravir 400 mg 8-hourly + nitazoxanide 200 mg 12-hourly", "result": "did not recur"},
      {"measurement": "Adverse event", "setting": "[6]; P3, favipiravir 12-hourly 400 mg increased to 800 mg, transaminitis did not recur", "result": "nail discolouration and frequent headaches"},
      {"measurement": "Adverse event", "setting": "[6]; P3, favipiravir 12-hourly 1200 mg, discontinued after one month", "result": "progressing transaminitis"},
      {"measurement": "Adverse event", "setting": "[6]; P4, after 2 months of favipiravir 400 mg 8-hourly + nitazoxanide, nail discolouration reversed after discontinuation", "result": "nail discolouration and intermittent jaundice"}
    ]}
  ]
}
